Data set [1] deals with T1, RSV's fusion (F) protein (Human respiratory syncytial virus A, UniProt P03420).
T1 construct: Sucrose gradient-purified RSV was treated with compound VI and compound X; host or cells: sucrose gradient-purified RSV virions
Kind of data set: Anti-F antibody binding to treated RSV (ELISA). Conditions: 100 μM, 4 hours at 40° C. (An ELISA detects its analyte on a solid surface through an enzyme-linked reagent.)
Protocol: Controls included mock-treated RSV incubated for 4 hours at 40° C. and non-treated virus kept at 4°° C. ELISA assay was performed according procedure described by Schmidt et al, J Virol. […] Eight serial 1:2 dilutions in PBS were plated (50 µl/well) in triplicates into 96-well plates, and incubated overnight at 4° C. The wells were washed with PBS and blocked with PBS/1% BSA. Anti-protein F antibody was added, and the mixture was incubated for 2 h, followed by washings and the addition of anti-mouse IgG HRP conjugate. After another round of washing, TMB substrate and sulfuric acid were added and readings were conducted using ELISA Reader SPECTRAmax PLUS (Molecular Devices,

Data set [2] relates to Y. enterocolitica. Kind of data set: Bacterial inactivation in WB, LB and RBCC, growth/no growth. Format: cell-based. More on the design: key: “+” Growth; “−” No growth. Particulars: 6 h at RT. Here is the method: (§1) Two G− species, Y. enterocolitica and P. fluorescens, both psychrophiles, and two G+ bacteria, S. epidermids and B. cereus, all known blood contaminants, were used in this study. All blood samples were spiked with approximately 0.1% bacterial stock suspension prepared in RS and left for equilibration at RT for 30 min. Freshly grown overnight bacterial cultures were used for each spiking. Compound VI and compound X were added to spiked blood to final concentrations of 100, 250, and 500 μM. Control samples (Ctr) received solvent only. Incubation was carried out at RT for 6 h followed by the addition of an inactivator, 100x Na thiosulfate, and additional incubation at RT for 2 h. After the incubation and quenching, aliquots were taken for serial dilutions and plate drop-counting and the bacterial growth-promoting solution (containing tryptone, peptone, yeast extract and casamino acids) was added to the remaining volumes. The growth/no growth results were confirmed by streaking agar plates.

Data set [3] has as its system S. epidermidis. Described as above. The class given is cell-based. Particulars: 6 h at RT. More on the design: key: “+” Growth; “−” No growth. The protocol: as §1
In data set [4] the test system is Human respiratory syncytial virus (RSV). Kind of data set: Viral inactivation, modified plaque assay. Format: cell-based. Conditions: 100 μM, RT. The protocol: Human respiratory syncytial virus (RSV) was inactivated by using Compound VI or Compound X. For that purpose, sucrose gradient-purified virus was treated with 100 μM of Compound VI and Compound X at RT. […] The virus titers were determined using standard 10× serial dilutions in a modified plaque assay. For mock-treated virus no significant changes in RSV infectivity were found even after 6 h incubation at RT (in different experiments, the reduction of titers were in the range of 0.11-0.36 Login PFU/mL).
Inactivation of RSV with different concentrations of Compound XVI at RT and 40° C. was performed as described in Example 9.

Data set [5] is described as follows: Neutralization of compound X with thiophenol (LCMS). Conditions: for ratio of the peak areas of compounds X, XXVI and XXVII: 100 μM X, 10 mM thiophenol, PBS.
Description: In the right panel are shown the mass spectra of the corresponding peaks.
Data set [6] can be described thus: Neutralization of compound X with glutathione. Particulars: in presence of glutathione, same conditions.
A short description of data set [7]: Binding of compound X to sulfonic cation exchange resin (Purolite NRW160, Na+ form) through ion pairs. The class given is physicochemical. Particulars: 50 mg dry beads in one mL of 100 μM solution in PBS. Here is the method: Purolite NRW160 polystyrene divinylbenzene cross-linked resin functionalized with sulfonic groups in the H^+ form, 500 g was transferred into the Na^+ form by the following steps: The beads were washed on a vacuum filter and under a sterile hood with 3 volumes of saturated NaCl solution, followed by two volume of 1 M NaOH. After NaOH sterilization beads were washed by sterile deionized water until the pH of the rinsings became neutral. The beads were incubated with two volumes of methanol for 15 min and after removing of methanol were rinsed again with three volumes of sterile deionized water. After final incubation in methanol (2 volumes) the alcohol was removed by filtration and beads were dried under the vacuum.
Dry beads, 50 mg were added to one mL of 100 μM solution of compound X in phosphate buffered saline.

The test system of data set [8] is 21-mer synthetic oligodeoxyribonucleotide (SEQ ID NO:1). Kind of data set: Reactivity toward nucleic acids, HPLC. The class given is biochemical. Conditions: 10 μM oligonucleotide, 200 μM compound, PBS pH 6.7, 37° C., 6 h.
[9] abbreviates: row 1 h, footnote c: time points were 2, 4, and 6 h (2 h).
The mark [10] stands for this setting: row 3 h, footnote c: time points were 2, 4, and 6 h (4 h).

SMILES strings stand for the structures.

T1 sequence (P03420 137-574): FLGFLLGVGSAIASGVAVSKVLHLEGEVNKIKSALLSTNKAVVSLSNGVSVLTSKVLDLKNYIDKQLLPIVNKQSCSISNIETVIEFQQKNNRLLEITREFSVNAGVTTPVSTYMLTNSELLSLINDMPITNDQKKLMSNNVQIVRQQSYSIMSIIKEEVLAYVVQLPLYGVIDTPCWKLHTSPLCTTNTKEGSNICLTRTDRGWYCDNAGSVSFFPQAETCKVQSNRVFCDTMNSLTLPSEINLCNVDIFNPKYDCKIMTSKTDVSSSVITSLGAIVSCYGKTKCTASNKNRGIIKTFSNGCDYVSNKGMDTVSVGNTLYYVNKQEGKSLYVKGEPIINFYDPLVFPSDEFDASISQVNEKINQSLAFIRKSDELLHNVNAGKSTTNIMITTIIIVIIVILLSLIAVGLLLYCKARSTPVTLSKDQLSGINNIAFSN
T1 sequence (P03420 26-109): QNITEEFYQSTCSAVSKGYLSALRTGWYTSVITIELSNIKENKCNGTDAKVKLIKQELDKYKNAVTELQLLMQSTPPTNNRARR

For the molecule `CN(CCCCN(C)CCCN1CC1)CCCN(C)CCCN1CC1` [Compound X], the “recognition of the F protein by monoclonal antibody after treatment” value in data set [1] is “did not change the degree of recognition of the F protein”. Further, the “Growth / No growth” value in data set [2] (LB, 100 μM) is reported as “−”; in data set [2] (LB, 250 μM), “−”; in data set [2] (RBCC, 100 μM) it was “−”; in data set [2] (RBCC, 250 μM), “−”; in data set [2] (WB, 100 μM), “−”; in data set [2] (WB, 250 μM), “−”. Besides, the “Growth / No growth” value in data set [3] (LB, 100 μM) is “−”; in data set [3] (LB, 250 μM), “−”; in data set [3] (RBCC, 100 μM) it was “−”; in data set [3] (RBCC, 250 μM), “−”; in data set [3] (WB, 100 μM), “−”; in data set [3] (WB, 250 μM) it was “−”. For the same molecule, the RSV titer in data set [4] (incubation 6 h) stood at 1.95 Log10PFU/mL; in data set [4] (setting [9]) it was 4.95 Log10PFU/mL; in data set [4] (setting [10]), 3.48 Log10PFU/mL. Moreover, the “ratio of the peak areas of compounds X, XXVI and XXVII” value in data set [5] (after 1 min and 40 sec (100 sec)) is listed as 21; in data set [5] (after 10 min), 3; in data set [5] (after 20 min), 0.5. Moreover, the “half-life of compound X” value was “below 1 min” in data set [5] (in presence of 10 mM of thiophenol) and 450 min in data set [6]. Moreover, the “concentration of compound X in the supernatant” value in data set [7] is “below 30 nM”. Besides, in data set [8], the “covalent adducts with the oligonucleotide (HPLC)” value was “appearance of covalent adducts”.

In the case of `CN(CCCCN(C)CCCN1CC1)CCCN1CC1` [Compound VI, N^1,N^4-bis(3-(aziridin-1-yl)propyl)-N^1,N^4-dimethylbutane-1,4-diamine], the “recognition of the F protein by monoclonal antibody after treatment” value in data set [1] is on record as “did not change the degree of recognition of the F protein”. The “Growth / No growth” value in data set [2] (LB, 100 μM) is reported as “−”; in data set [2] (LB, 250 μM) it was “−”; in data set [2] (LB, 500 μM), “−”; in data set [2] (RBCC, 100 μM) it was “−”; in data set [2] (RBCC, 250 μM) it was “−”; in data set [2] (RBCC, 500 μM), “−”. Also, the “Growth / No growth” value in data set [2] (WB, 100 μM) was “−”; in data set [2] (WB, 250 μM), “−”; in data set [2] (WB, 500 μM) it was “−”; in data set [3] (LB, 100 μM), “−”; in data set [3] (LB, 250 μM), “−”; in data set [3] (LB, 500 μM), “−”. The “Growth / No growth” value in data set [3] (RBCC, 100 μM) is reported as “−”; in data set [3] (RBCC, 250 μM) it was “−”; in data set [3] (RBCC, 500 μM), “−”; in data set [3] (WB, 100 μM) it was “−”; in data set [3] (WB, 250 μM), “−”; in data set [3] (WB, 500 μM) it was “−”. The RSV titer result in data set [4] (incubation 6 h) was “below the limit of detection and BLD”; in data set [4] (setting [9]), 4.52 Log10PFU/mL; in data set [4] (setting [10]) it was 1.89 Log10PFU/mL.

(Values after patent publication US20250127168A1, “METHOD FOR PATHOGENS, MICROORGANISMS, AND PARASITES INACTIVATION” (New York Blood Center, Inc., priority 2018, published 2025).)
